Results as given in article PMC4774534 (Antiviral Research, 2015).
Structures can show the parent of a compound that is named as a salt. Where two headings read alike, the source gives them in different places.

Legend:
[1] = test system: SARS-CoV S pseudotyped virus on 293T-ACE2 cells; type: cell-based; settings: read-out: HIV-luc (SARS-CoV S) IC50
[2] = test system: EBOV pseudotyped virus on 293T-ACE2 cells; type: cell-based; settings: read-out: HIV-luc (EBOV GP) IC50
[3] = test system: Ebola pseudovirus on 293T-CD13 cells transiently expressing TMPRSS2; type: cell-based, EBOV
[4] = test system: VSV-G pseudovirus on 293T-CD13 cells transiently expressing TMPRSS2; type: cell-based
[5] = test system: SARS-CoV Urbani strain in Vero 76 cells; type: cell-based; settings: read-out: CPE inhibition IC50
[6] = test system: SARS-CoV Toronto-2 strain in Vero 76 cells; type: cell-based; settings: read-out: CPE inhibition IC50
[7] = test system: SARS-CoV Urbani strain in Vero 76 cells; type: cell-based; settings: read-out: Neutral red (NR) assay IC50
[8] = test system: SARS-CoV Toronto-2 strain in Vero 76 cells; type: cell-based; settings: read-out: Neutral red (NR) assay IC50
[9] = test system: SARS-CoV Urbani strain in Vero 76 cells; type: cell-based; settings: read-out: Virus yield reduction IC90
[10] = test system: replication competent SARS-CoV (Urbani and Toronto-2); type: cell-based
[11] = test system: SARS-CoV Toronto-2 strain in Vero 76 cells; type: cell-based; settings: read-out: Virus yield reduction IC90

| Compound | IC50 [1] [nM] | IC50 [2] [nM] | also measured |
| --- | --- | --- | --- |
| CCN1CCN(C(=O)N[C@@H](Cc2ccccc2)C(=O)N[C@H](/C=C/S(=O)(=O)c2ccccc2)CCc2ccccc2)CC1 [SMDC-256122, (2S)-N-[(1E,3S)-1-(benzenesulfonyl)-5-phenylpent-1-en-3-yl]-2-{[(E)-4-ethylpiperazine-1-carbonyl]amino}-3-phenylpropanamide] | 0.04 ± 0.01 | 0.12 ± 0.01 | – |
| CN(C)C(=O)COC(=O)Cc1ccc(OC(=O)c2ccc(NC(=N)N)cc2)cc1 [camostat, camostat mesylate] | – | – | effect on Ebola pseudovirus infection [3]: no impact; effect on VSV-G driven viral entry [4]: no impact |
| CCCN1CCN(C(=O)N[C@@H](Cc2ccccc2)C(=O)N[C@H](/C=C/S(=O)(=O)c2ccccc2)CCc2ccccc2)CC1 [SMDC-256157, (2S)-N-[(1E,3S)-1-(benzenesulfonyl)-5-phenylpent-1-en-3-yl]-2-{[(E)-4-propylylpiperazine-1-carbonyl]amino}-3-phenylpropanamide] | 0.24 ± 0.03 | 0.42 ± 0.03 | – |
| O=C(N[C@H](/C=C/S(=O)(=O)c1ccccc1)CCc1ccccc1)[C@H](Cc1ccccc1)NC(=O)N1CCN(C2CCCC2)CC1 [SMDC-256161, (2S)-N-[(1E,3S)-1-(benzenesulfonyl)-5-phenylpent-1-en-3-yl]-2-{[(E)-4-cyclopentylpiperazine-1-carbonyl]amino}-3-phenylpropanamide] | 0.25 ± 0.16 | 0.18 ± 0.01 | – |
| O=C(N[C@H](/C=C/S(=O)(=O)c1ccccc1)CCc1ccccc1)[C@H](Cc1ccccc1)NC(=O)N1CCN(c2ccccc2)CC1 [SMDC-256158, (2S)-N-[(1E,3S)-1-(benzenesulfonyl)-5-phenylpent-1-en-3-yl]-2-{[(E)-4-phenylpiperazine-1-carbonyl]amino}-3-phenylpropanamide] | 2.49 ± 0.34 | 2.69 ± 0.43 | – |
| COCCN1CCN(C(=O)N[C@@H](Cc2ccccc2)C(=O)N[C@H](/C=C/S(=O)(=O)c2ccccc2)CCc2ccccc2)CC1 [SMDC-256159, (2S)-N-[(1E,3S)-1-(benzenesulfonyl)-5-phenylpent-1-en-3-yl]-2-{[(E)-4-(2-methoxyethyl)piperazine-1-carbonyl]amino}-3-phenylpropanamide] | 0.07 ± 0.02 | 0.16 ± 0.02 | IC50 [5]: 650 ± 810 nM; IC50 [6]: < 480 nM; IC50 [7]: < 2260 nM; IC50 [8]: 650 nM; IC90 [9]: 7100 ± 7600 nM; 90% reduction in viral yields, range over strains [10]: <0.48 to 7.1 µM |
| O=C(N[C@H](/C=C/S(=O)(=O)c1ccccc1)CCc1ccccc1)[C@H](Cc1ccccc1)NC(=O)N1CCN(CC2CC2)CC1 [SMDC-256162, (2S)-N-[(1E,3S)-1-(benzenesulfonyl)-5-phenylpent-1-en-3-yl]-2-{[(E)-4-(cyclopropylmethyl)piperazine-1-carbonyl]amino}-3-phenylpropanamide] | 0.16 ± 0.03 | 0.1 ± 0.01 | – |
| (2S)-N-[(1E,3S)-1-(benzenesulfonyl)-5-phenylpent-1-en-3-yl]-2-{[(E)-4-tert-butylpiperazine-1-carbonyl]amino}-3-phenylpropanamide [SMDC-256160] | 0.08 ± 0.01 | 0.11 ± 0.03 | IC50 [5]: < 80 nM; IC50 [6]: < 50 nM; IC50 [7]: < 130 nM; IC50 [8]: 320 nM; IC90 [9]: 490 nM; IC90 [11]: 12200 nM; 90% reduction in viral yields, range over strains [10]: 0.49 to 12.2 µM; IC50 ([10]; read-out: IC50 values, range over strains and readouts): 50 to 320 nM |
| CC(C)N1CCN(C(=O)N[C@@H](Cc2ccccc2)C(=O)N[C@H](/C=C/S(=O)(=O)c2ccccc2)CCc2ccccc2)CC1 [SMDC-256123, (2S)-N-[(1E,3S)-1-(benzenesulfonyl)-5-phenylpent-1-en-3-yl]-2-{[(E)-4-(propan-2-yl)piperazine-1-carbonyl]amino}-3-phenylpropanamide] | 0.11 ± 0.01 | 0.25 ± 0.07 | – |
